Assay results as given in ChEMBL document CHEMBL3870335, “Bioactivity of topologically confined gramicidin A dimers” (Bioorg Med Chem, 2017).
≈ marks a conversion by molar mass, not a printed value.

What was measured:
[1] = Hemolytic activity against human erythrocytes at 20 to 140 uM after 30 mins; type: ADME, cell-based; settings: erythrocyte, 0.5 h
[2] = Stability of the compound in 1,4-dioxane assessed as negative cotton effect at 50 uM by CD spectroscopic method; type: physicochemical
[3] = Stability of the compound in n-Octanol assessed as negative cotton effect at 50 uM by CD spectroscopic method; type: physicochemical
[4] = Stability of the compound in THF assessed as negative cotton effect at 50 uM by CD spectroscopic method; type: physicochemical
[5] = Stability of the compound in MeOH assessed as negative cotton effect at 50 uM by CD spectroscopic method; type: physicochemical
[6] = Stability of the compound in acetonitrile assessed as negative cotton effect at 50 uM by CD spectroscopic method; type: physicochemical
Escherichia coli = test: Antimicrobial activity against Escherichia coli ATCC 25922 after 16 to 20 hrs by broth microdilution method; type: functional
Klebsiella pneumoniae = test: Antimicrobial activity against Klebsiella pneumoniae ATCC 13883 after 16 to 20 hrs by broth microdilution method; type: functional
Proteus mirabilis = test: Antimicrobial activity against Proteus mirabilis ATCC 7002 after 16 to 20 hrs by broth microdilution method; type: functional
Pseudomonas aeruginosa = test: Antimicrobial activity against Pseudomonas aeruginosa ATCC 27853 after 16 to 20 hrs by broth microdilution method; type: functional
Streptococcus pneumoniae = test: Antimicrobial activity against Streptococcus pneumoniae serotype 19A after 16 to 20 hrs by broth microdilution method; type: functional
Enterococcus faecalis = test: Antimicrobial activity against Enterococcus faecalis ATCC 29212 after 16 to 20 hrs by broth microdilution method; type: functional
Enterococcus faecium = test: Antimicrobial activity against Enterococcus faecium DSMZ 20477 after 16 to 20 hrs by broth microdilution method; type: functional
[7] = tested on: Staphylococcus epidermidis; test: Antimicrobial activity against Staphylococcus epidermidis PP62A after 16 to 20 hrs by broth microdilution method; type: functional
Plasmodium falciparum [8] = test: Antimalarial activity against chloroquine-sensitive Plasmodium falciparum 3D7 after 72 hrs by NBT based LDH assay; type: functional; settings: 3D7, 72 h
Plasmodium falciparum [9] = test: Antimalarial activity against chloroquine-resistant Plasmodium falciparum Dd2 after 72 hrs by NBT based LDH assay; type: functional; settings: Dd2, 72 h
Staphylococcus aureus = test: Antimicrobial activity against methicillin-resistant Staphylococcus aureus ATCC 43300 after 16 to 20 hrs by broth microdilution method; type: functional

Row | SMILES | Activity [1] | Stability [2] | Stability [3] | Stability [4] | Stability [5] | Stability [6] | MIC (Escherichia coli) [µg/mL] | MIC (Klebsiella pneumoniae) [µg/mL] | MIC (Proteus mirabilis) [µg/mL] | MIC (Pseudomonas aeruginosa) [µg/mL] | MIC (Streptococcus pneumoniae) [µg/mL] | MIC (Enterococcus faecalis) [µg/mL] | MIC (Enterococcus faecium) [µg/mL] | MIC [7] [µg/mL] | IC50 (Plasmodium falciparum [8]) [nM] | IC50 (Plasmodium falciparum [9]) [nM] | MIC (Staphylococcus aureus) [µg/mL]
1 | CC(=O)N[C@H](C(=O)NCC(=O)N[C@@H](C)C(=O)N[C@H](CC(C)C)C(=O)N[C@@H](C)C(=O)N[C@@H](C(=O)N[C@H](C(=O)N[C@@H](C(=O)N[C@@H](Cc1c[nH]c2ccccc12)C(=O)N[C@H](CC(C)C)C(=O)N[C@@H](Cc1c[nH]c2ccccc12)C(=O)N[C@H](CC(C)C)C(=O)N[C@@H](Cc1c[nH]c2ccccc12)C(=O)N[C@H](CC(C)C)C(=O)N[C@@H](Cc1c[nH]c2ccccc12)C(=O)NCCSSCCC(=O)N[C@H](C(=O)NCC(=O)N[C@@H](C)C(=O)N[C@H](CC(C)C)C(=O)N[C@@H](C)C(=O)N[C@@H](C(=O)N[C@H](C(=O)N[C@@H](C(=O)N[C@@H](Cc1c[nH]c2ccccc12)C(=O)N[C@H](CC(C)C)C(=O)N[C@@H](Cc1c[nH]c2ccccc12)C(=O)N[C@H](CC(C)C)C(=O)N[C@@H](Cc1c[nH]c2ccccc12)C(=O)N[C@H](CC(C)C)C(=O)N[C@@H](Cc1c[nH]c2ccccc12)C(=O)NCCO)C(C)C)C(C)C)C(C)C)C(C)C)C(C)C)C(C)C)C(C)C)C(C)C | Non-Toxic | Stable | Stable | Stable | Stable | Stable |  |  |  |  |  |  |  |  |  |  | 
2 | CC(=O)N[C@H](C(=O)NCC(=O)N[C@@H](C)C(=O)N[C@H](CC(C)C)C(=O)N[C@@H](C)C(=O)N[C@@H](C(=O)N[C@H](C(=O)N[C@@H](C(=O)N[C@@H](Cc1c[nH]c2ccccc12)C(=O)N[C@H](CC(C)C)C(=O)N[C@@H](Cc1c[nH]c2ccccc12)C(=O)N[C@H](CC(C)C)C(=O)N[C@@H](Cc1c[nH]c2ccccc12)C(=O)N[C@H](CC(C)C)C(=O)N[C@@H](Cc1c[nH]c2ccccc12)C(=O)NCCSSCCNC(=O)[C@H](Cc1c[nH]c2ccccc12)NC(=O)[C@@H](CC(C)C)NC(=O)[C@H](Cc1c[nH]c2ccccc12)NC(=O)[C@@H](CC(C)C)NC(=O)[C@H](Cc1c[nH]c2ccccc12)NC(=O)[C@@H](CC(C)C)NC(=O)[C@H](Cc1c[nH]c2ccccc12)NC(=O)[C@H](NC(=O)[C@@H](NC(=O)[C@H](NC(=O)[C@H](C)NC(=O)[C@@H](CC(C)C)NC(=O)[C@H](C)NC(=O)CNC(=O)[C@@H](NC(C)=O)C(C)C)C(C)C)C(C)C)C(C)C)C(C)C)C(C)C)C(C)C)C(C)C | Non-Toxic | Stable | Stable | Stable | Stable |  | > 64 | > 64 | > 64 | > 64 | 0.1 (≈ 0.0262 µM) | > 64 | > 64 | > 64 | 10 | 0.2 | > 64
